Source: patent publication US20110230359A1, “LABEL-FREE ON-TARGET PHARMACOLOGY METHODS” (priority 2010, published 2011)

Columns and labels:
EGFR = assay: modulation profiling DMR assay, marker EGF, A431 cells; assay type: cell-based, human; settings: 10 μM salbutamol pretreatment ~1 hr, 32 nM epidermal growth factor
GPR109A = assay: modulation profiling DMR assay, marker nicotinic acid, A431 cells; assay type: cell-based, human; settings: 10 μM salbutamol pretreatment ~1 hr, 1 μM nicotinic acid

With `CC(C)(C)NCC(O)c1ccc(O)c(CO)c1` (centres unmarked) [salbutamol] the “modulation of EGF DMR (P-DMR and N-DMR)” value (EGFR) was “little impact” and the “modulation of nicotinic acid DMR (P-DMR)” value (GPR109A) was “potentiates”.
